Assay results reported in publication PMC3488456 (Bioorganic & medicinal chemistry letters, 2012).

Tests used:
LXRβ = conditions: reporter-gene assay; cited from earlier work
SF1 = conditions: same FRET assay; cited from earlier work
LRH1 = conditions: same FRET assay; cited from earlier work
RORα = conditions: same FRET assay; cited from earlier work
LXRα = conditions: reporter-gene assay; cited from earlier work
Rat pharmacokinetics = format: in vivo, Sprague-Dawley rats; conditions: for clearance: Sprague-Dawley, rat, in vivo, iv, 1 mg/kg
FXR = conditions: same FRET assay; cited from earlier work
Mouse brain penetration = format: in vivo, C57Bl6 mice; conditions: mice
Rev-erbα = target: T1, Rev-erbα (Homo sapiens, UniProt P20393); format: cell-based
T1 sequence (P20393 1-614): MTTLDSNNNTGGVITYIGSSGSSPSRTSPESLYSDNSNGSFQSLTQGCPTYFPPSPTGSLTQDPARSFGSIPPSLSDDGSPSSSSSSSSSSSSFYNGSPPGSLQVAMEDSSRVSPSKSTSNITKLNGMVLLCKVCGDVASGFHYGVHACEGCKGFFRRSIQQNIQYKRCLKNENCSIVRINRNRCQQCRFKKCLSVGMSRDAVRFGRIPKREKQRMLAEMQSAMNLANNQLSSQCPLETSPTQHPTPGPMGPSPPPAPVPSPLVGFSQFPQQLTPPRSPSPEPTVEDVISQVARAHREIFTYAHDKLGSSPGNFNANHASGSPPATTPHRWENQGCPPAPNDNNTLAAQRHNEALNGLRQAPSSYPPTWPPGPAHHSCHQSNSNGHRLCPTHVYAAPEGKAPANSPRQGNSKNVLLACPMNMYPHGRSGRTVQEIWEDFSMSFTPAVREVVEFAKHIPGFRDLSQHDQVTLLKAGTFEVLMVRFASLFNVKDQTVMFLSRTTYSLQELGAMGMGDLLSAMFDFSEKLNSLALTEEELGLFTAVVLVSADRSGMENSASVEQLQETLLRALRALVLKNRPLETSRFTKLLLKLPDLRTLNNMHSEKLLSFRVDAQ

CC(C)(C)OC(=O)CN(Cc1ccc(Cl)cc1)Cc1ccc([N+](=O)[O-])s1 [Compound 1]
activity on LXRβ (LXRβ): no activity | activity on SF1 (SF1): no activity | activity on LRH1 (LRH1): no activity | activity on RORα (RORα): no activity | activity on LXRα (LXRα): no activity | clearance (Rat pharmacokinetics): 353 mL/min/kg | oral bioavailability / oral absorption (in words) (Rat pharmacokinetics; rats): poor oral bioavailability | plasma clearance (in words) (Rat pharmacokinetics; rats): very high plasma clearance | volume of distribution (in words) (Rat pharmacokinetics; rats): high volume of distribution | rodent pharmacokinetics (in words) (Rat pharmacokinetics; rodent): poor | activity on FXR (FXR): no activity | brain penetration (in words) (Mouse brain penetration): good brain penetration

CCOC(=O)C1Cc2ccccc2CN1C(=O)c1ccno1 (centres unmarked) [Compound 3n]
EC50 (Rev-erbα): 2500 nM

O=C(c1cccc2ccccc12)N1Cc2ccccc2CC1COCc1ccccc1 (centres unmarked) [Compound 6d]
clearance (Rat pharmacokinetics): 39 mL/min/kg | oral bioavailability / oral absorption (in words) (Rat pharmacokinetics; rats): poor oral absorption

O=C(c1cccc2ccccc12)N1Cc2ccccc2CC1CNCc1ccccc1 (centres unmarked) [Compound 7d]
clearance (Rat pharmacokinetics): 43 mL/min/kg | oral bioavailability / oral absorption (in words) (Rat pharmacokinetics; rats): poor oral absorption
